Data as given in PMC12310023 (PLOS Neglected Tropical Diseases, 2025).

Legend:
[1] = system: CYP1A2; experiment: CYP Induction Assay in dog hepatocytes; conditions: 30 and 100 μM, 48 h
[2] = target: CYP2D6 (Homo sapiens, UniProt P10635); experiment: in vitro; conditions: recombinant CYP2D6 supersomes
[3] = system: NLuc-expressing C. parvum; experiment: NLuc C. parvum IFNγ-KO mouse infection model, oocyst shedding; type: in vivo
[4] = Cytotoxicity; conditions: human, HEPG2 hepatocyte cell line
[5] = target: T1, CYP2C8 (Homo sapiens, UniProt P10632); experiment: in vitro; conditions: recombinant CYP2C8 supersomes
T1 sequence (P10632 1-490): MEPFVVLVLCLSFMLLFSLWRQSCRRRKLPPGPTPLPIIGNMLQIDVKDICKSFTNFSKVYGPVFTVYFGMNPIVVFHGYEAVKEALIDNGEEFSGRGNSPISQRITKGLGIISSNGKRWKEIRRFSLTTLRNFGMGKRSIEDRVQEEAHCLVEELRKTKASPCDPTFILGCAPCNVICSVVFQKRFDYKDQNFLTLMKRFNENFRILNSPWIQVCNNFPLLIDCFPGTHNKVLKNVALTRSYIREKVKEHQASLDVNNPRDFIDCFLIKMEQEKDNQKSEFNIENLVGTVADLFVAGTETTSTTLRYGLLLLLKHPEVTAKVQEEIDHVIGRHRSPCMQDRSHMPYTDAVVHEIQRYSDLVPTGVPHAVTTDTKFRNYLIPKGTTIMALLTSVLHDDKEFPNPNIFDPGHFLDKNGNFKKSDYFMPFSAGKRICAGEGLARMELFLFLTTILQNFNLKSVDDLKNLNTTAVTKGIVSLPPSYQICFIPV

[6] = target: CYP2C19 (Homo sapiens, UniProt P33261); experiment: in vitro; conditions: recombinant CYP2C19 supersomes
Sequence of CYP2C19 (P33261 whole entry): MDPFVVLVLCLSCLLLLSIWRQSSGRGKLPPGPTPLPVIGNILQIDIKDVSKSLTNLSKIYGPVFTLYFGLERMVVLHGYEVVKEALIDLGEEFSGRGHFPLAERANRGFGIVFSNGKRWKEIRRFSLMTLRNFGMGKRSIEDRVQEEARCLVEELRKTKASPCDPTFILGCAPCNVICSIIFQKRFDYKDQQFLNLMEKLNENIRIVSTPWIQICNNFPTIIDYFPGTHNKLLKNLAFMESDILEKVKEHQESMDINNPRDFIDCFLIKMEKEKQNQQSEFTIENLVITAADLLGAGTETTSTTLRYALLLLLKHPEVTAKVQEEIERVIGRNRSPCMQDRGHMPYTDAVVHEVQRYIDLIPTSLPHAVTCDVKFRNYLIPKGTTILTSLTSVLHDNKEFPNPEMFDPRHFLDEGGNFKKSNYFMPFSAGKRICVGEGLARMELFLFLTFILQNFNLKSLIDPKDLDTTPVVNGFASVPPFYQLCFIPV

[7] = target: T2, CYP1A2 (Homo sapiens, UniProt P05177); experiment: biochemical
T2 sequence (P05177 1-516): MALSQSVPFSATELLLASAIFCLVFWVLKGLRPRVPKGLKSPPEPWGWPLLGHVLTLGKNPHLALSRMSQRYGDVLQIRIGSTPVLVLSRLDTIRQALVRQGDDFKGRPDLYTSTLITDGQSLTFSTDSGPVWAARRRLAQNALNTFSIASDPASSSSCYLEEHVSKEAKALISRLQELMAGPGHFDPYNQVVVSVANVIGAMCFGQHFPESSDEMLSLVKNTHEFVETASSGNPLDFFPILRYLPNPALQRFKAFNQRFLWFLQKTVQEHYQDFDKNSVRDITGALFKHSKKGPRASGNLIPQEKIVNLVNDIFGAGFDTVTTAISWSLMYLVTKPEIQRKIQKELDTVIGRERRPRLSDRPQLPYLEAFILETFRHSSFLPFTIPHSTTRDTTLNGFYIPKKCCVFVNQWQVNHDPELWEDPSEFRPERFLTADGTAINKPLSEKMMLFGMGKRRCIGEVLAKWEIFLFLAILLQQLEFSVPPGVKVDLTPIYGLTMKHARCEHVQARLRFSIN

[8] = target: T3, PPARγ (Homo sapiens, UniProt P37231); experiment: Cerep binding assay; conditions: agonist radioligand, mean
T3 construct: Cerep (Eurofins, France)
T3 sequence (P37231 whole entry): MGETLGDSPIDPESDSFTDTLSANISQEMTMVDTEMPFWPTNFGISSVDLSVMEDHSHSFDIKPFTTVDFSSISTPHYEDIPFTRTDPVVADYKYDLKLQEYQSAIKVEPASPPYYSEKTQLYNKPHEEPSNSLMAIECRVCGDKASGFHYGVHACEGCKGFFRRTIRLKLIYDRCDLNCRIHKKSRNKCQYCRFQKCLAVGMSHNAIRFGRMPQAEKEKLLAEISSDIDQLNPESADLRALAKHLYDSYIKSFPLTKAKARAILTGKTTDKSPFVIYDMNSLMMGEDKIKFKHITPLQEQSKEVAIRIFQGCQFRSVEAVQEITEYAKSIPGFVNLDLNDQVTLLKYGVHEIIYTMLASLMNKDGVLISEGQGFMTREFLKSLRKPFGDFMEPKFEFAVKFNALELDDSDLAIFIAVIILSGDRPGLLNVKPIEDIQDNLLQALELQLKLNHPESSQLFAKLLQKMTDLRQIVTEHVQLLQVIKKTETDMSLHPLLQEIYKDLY

[9] = Liver microsome stability; conditions: dog, pooled liver microsomes

Sequence of CYP2D6 (P10635 whole entry): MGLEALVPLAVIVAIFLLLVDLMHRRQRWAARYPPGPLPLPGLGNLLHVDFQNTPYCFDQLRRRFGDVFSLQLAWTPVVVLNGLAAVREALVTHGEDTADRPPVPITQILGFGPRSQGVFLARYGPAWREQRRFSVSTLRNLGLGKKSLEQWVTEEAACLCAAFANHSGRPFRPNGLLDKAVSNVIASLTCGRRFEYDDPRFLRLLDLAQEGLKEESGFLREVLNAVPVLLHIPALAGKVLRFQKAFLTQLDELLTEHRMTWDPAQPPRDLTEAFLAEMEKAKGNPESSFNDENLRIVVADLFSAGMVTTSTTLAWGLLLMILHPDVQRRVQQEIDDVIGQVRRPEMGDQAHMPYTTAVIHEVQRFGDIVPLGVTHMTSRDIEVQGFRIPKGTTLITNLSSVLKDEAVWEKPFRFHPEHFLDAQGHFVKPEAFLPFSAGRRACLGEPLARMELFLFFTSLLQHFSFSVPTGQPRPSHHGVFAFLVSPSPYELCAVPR

CC1(C)Cn2nc(-c3ccc4cc(OC5CC5)ccc4c3)c(C(N)=O)c2NC1O (centres unmarked) [M2]
induction of CYP1A2 [1]: strong inducers | CLint scaled [2]: < 0.183 mL/min/kg | half-life [2]: > 4 h | day p.i. oocyst shedding reached LoD ([3]; M2 8 mg/kg x 3 days PO): 17 days | day p.i. oocyst shedding below LoD ([3]; M2 15 mg/kg x 3 days PO): ≤ 10 days | day p.i. oocyst shedding below LoD ([3]; M2 30 mg/kg x 3 days PO): ≤ 10 days | CC50 [4]: 13.4 µM | CLint scaled [5]: < 1.78 mL/min/kg | half-life [5]: > 4 h | CLint scaled [6]: < 0.117 mL/min/kg | half-life [6]: > 4 h | IC50 [7]: > 40 µM | % inhibition of control specific binding ([8]; 10 μM): 70.1% | inhibition at 10 µM ([8]; read-out: % inhibition of control specific binding): 70% | CLint scaled [9]: < 33.3 mL/min/kg | half-life [9]: > 2 h | microsomal CLint [9]: < 23.1 µL/min/mg
